Laboratory results: US12365643B2, “Phenoxy carboxylic acid compounds and medical uses thereof” (QINGDAO RISING BIOTECHNOLOGY CO., LTD, priority 2018, dated 2025)

Key:
[1] = test system: RAW264.7 mouse macrophages; assay: Determination of NO generation induced by LPS; format: cell-based; conditions: 10 μM, 1 μg/mL LPS, 24 hours, RAW264.7 (FIG. 2)
Experimental: The results are expressed as the multiple of the NO content in the cell culture supernatant of the administration group (10 μM) as compared with that in the cell culture supernatant of the control group (DMSO group), in which compared with the control group, *P<0.05, **P<0.01, ***P<0.001.
NO is a reactive nitrogen species (RNS) and an important gas signal molecule. Macrophages could convert arginine into NO which participated in the body's inflammatory response. Therefore, determination of inhibitory activity of a drug on NO generation was one of the classic methods to evaluate drug's anti-inflammatory ability. RAW264.7 cells at exponential growth phase were inoculated into a 96-well plate at 1×10^4 cells/200 μL. well of medium. After adherence, the medium was discarded, and the cells were subjected to drug treatments. Normal group (serum-free medium), LPS model group (serum-free medium containing 1 μg/mL LPS), LPS+drug group (serum-free medium containing 1 μg/mL LPS, 10 μM gemfibrozil or the compound of the present application) were established, and 3 repeated wells were set for each group. After 24 hours incubation in incubator, cell supernatant of each well was collected and assay was performed according to the instructions of NO determination kit (Nanjing Jiancheng). The absorbance value of each well at wavelength of 540 nm was read and NO content was calculated.

[2] = test system: CPT1α; assay: CPT1α protein level by Western blotting in HepG2; format: cell-based, human; conditions: 1 μM, 24 hours, HepG2, Western blotting (FIG. 6A)
Description: (§1) Carnitine palmitoyltransferase (CPT1α) is a rate-limiting enzyme of fatty acid oxidation. When the body or tissues are lacking in energy, CPT1α catalyzes the entry of fatty acids into mitochondria for […], and at the same time, CPT1α is also involved in the regulation of fatty acid-induced insulin resistance and inflammation. Protein kinase B/glycogen synthase kinase 3β (AKT/GSK3β) signaling pathway and insulin receptor substrate 1 (IRS-1) are key signaling pathways that regulate glucose metabolism in response to insulin signal. Therefore, by determining the effects of compounds on the CPT1α protein level and the AKT, GSK3β and IRS-1 protein phosphorylation levels, it is possible to evaluate the regulatory effects of the compounds on glycolipid metabolism.
(§2) After human liver cancer cells HepG2 were incubated with the compound of the present application or the control drug at 1 μM for 24 hours, the CPT1α protein level and the AKT, GSK3β and IRS-1 phosphorylated protein levels in the cells were determined by Western blotting; after gray-scale scanning by using Image J15.0.1, normalization was performed by using β-tubulin protein level as internal control, and the quantitative analysis results were shown in FIG. 6.

[3] = test system: NF-κB; assay: NF-κB luciferase reporter gene transcriptional activity in SW480 cells; format: cell-based, human; conditions: 50 μM, 6 hours, SW480 stably transfected (FIG. 3)
Experimental: NF-κB was the most important inflammatory signal pathway. SW480 human colon cancer cells stably transfected with a luciferase reporter gene driven by NF-κB were used to determine the effects of the compound of the present application and the control drug gemfibrozil on NF-κB transcriptional activity, which comprised the following steps. • (1) Cells stably transfected with NF-κB Luc were cultivated to exponential growth, inoculated at a culture medium concentration of 1×10^5/[…] in a 24-well plate, and cultured for 24 hours, the medium was discarded, and the test compound or gemfibrozil formulated with serum-free medium at 50 μM were added to the 24-well plate and incubation was continued for 6 hours. After washing once with 200 μL of PBS, 100 μL of reporter gene cell lysis buffer was added, the cells were lysed on ice for 10 minutes, and the cell lysate was collected by pipetting. • (2) After centrifugation was performed at 8000 rpm and 4° C. for 10 min, the supernatant was pipetted for fluorescence assay. • (3) The measurement gap time of chemiluminescence analyzer was set to 2 s and the measurement time was set to 10 s. Automatic sample injection was adopted, 50 μL of luciferase assay reagent was added to each well. The reporter gene cell lysis buffer was used as a blank control. • (4) After centrifugation, the supernatant was taken, and the BCA method was used to determine the protein concentration so as to normalize the reporter gene results.

[4] = test system: db/db mice; assay: Diabetes mellitus model (db/db mice); format: in vivo, mouse; conditions: for blood glucose level: 50 mg/kg intragastric once a day for 28 days (FIG. 7); for AHDL (high density lipoprotein) / ALDL (low density lipoprotein) / ALT / AST / BUN / CHOL (total cholesterol) / CK / CREA / TGL (triglycerides) / fat content in the liver (Oil red O and H.E. staining): intragastric once a day for 28 days; for AHDL (high density lipoprotein) / ALDL (low density lipoprotein) / ALT / AST / BUN / CHOL (total cholesterol) / CK / CREA / TGL (triglycerides): 50 mg/kg (pioglitazone 6 mg/kg); for fat content in the liver (Oil red O and H.E. staining): 50 mg/kg (pioglitazone 6 mg/kg) (FIGS. 8A-8B)
Description: Animal model: C57BL/KsJ-leprdb/leprdb diabetic (db/db) mice were widely used as animal models of type 2 diabetes mellitus, in which spontaneous mutations of leptin receptor (Leptin receptor, Lepr) caused extreme obesity, polyphagia, diabetes and polyuria. In this experiment, db/db mice (purchased from the Department of Animals, Health Science Center of Peking University) were selected. In the experiment, 28 db/db mice were used, and the animals with blood glucose of about 7-13 mmol/L were selected. […] Intragastric administration was adopted with an administration volume of 10 ml/kg. […] The administration was performed once a day for 28 consecutive days. From the day of oral administration, the physiological changes of the animals were observed every day. Blood glucose was measured every 3 days (Roche blood glucose meter) and blood glucose difference (Δ) was calculated by the following formula: blood glucose difference (Δ)=the blood glucose of the day—the initial blood glucose (the initial blood glucose difference was zero). For mice in each experimental group, blood was collected, serum was separated, and liver was taken for wet-weight measurement after necropsy; liver tissue was taken and fixed for pathological examination, H.E. staining and oil red O staining (Wuhan Zishan Biotechnology Co., Ltd.) were performed, and mouse liver lesions were observed under light microscope; routine examination of blood was performed by Animal Laboratory Department, Health Science Center of Peking University to measure the following indexes: white blood cell count (WBC), red blood cell count (RBC), lymphocyte count (LY), platelet (PLT) and so on; biochemical laboratory examination of blood was performed by Laboratory Medicine, Third Hospital, Peking University to measure the following indexes: triglycerides (TG), total cholesterol (T-CHO), high-density lipoprotein cholesterol (HDL-C), low-density lipoprotein cholesterol (LDL-C) and so on.

[5] = test system: phosphorylated IRS-1; assay: Phosphorylated IRS-1 level by Western blotting in HepG2; format: cell-based, human; conditions: 1 μM, 24 hours, HepG2, Western blotting (FIG. 6C)
Description: as §1, §2

[6] = 50 mg/kg intragastric once a day for 28 days

Compound | NO generation induced by LPS [1] | CPT1α protein level [2] | activity of NF-κB reporter gene [3] | activity of lowering triglycerides (in words) [4, 6] | total cholesterol content in blood (in words) [4, 6] | blood glucose level [4] | AHDL (high density lipoprotein) [4] | ALDL (low density lipoprotein) [4] | ALT [4] | AST [4] | BUN [4] | CHOL (total cholesterol) [4] | CK [4] | CREA [4] | TGL (triglycerides) [4] | fat content in the liver (Oil red O and H.E. staining) [4] | phosphorylation level of IRS-1 [5]
Cc1cc(OCCCC(C)(C)C(=O)O)c(C)cc1Cl [BJMU-1, 5-(4-chloro-2,5-dimethylphenoxy)-2,2-dimethylpentanoic acid] | could inhibit NO generation | significantly increased CPT1α protein level | could significantly inhibit the activity of NF-κB reporter gene |  |  |  |  |  |  |  |  |  |  |  |  |  | 
Cc1cc(OCCCC(C)(C)C(=O)O)c(C)cc1Br [BJMU-2, 5-(4-bromo-2,5-dimethylphenoxy)-2,2-dimethylpentanoic acid] | could inhibit NO generation | significantly increased CPT1α protein level | could significantly inhibit the activity of NF-κB reporter gene | had an activity of lowering triglycerides better than gemfibrozil | could reduce the total cholesterol content in the blood | could significantly reduce the blood glucose level | 1.59 ± 0.13 mmol/L | 0.33 ± 0.09 mmol/L | 187.75 ± 62.07 U/L | 210.75 ± 56.97 U/L | 7.23 ± 1.19 mmol/L | 3.06 ± 0.63 mmol/L | 1790.75 ± 388.38 U/L | 10.13 ± 5.25 µmol/L | 1.44 ± 0.42 mmol/L | could significantly reduce the fat content in the liver | significantly increased the phosphorylation level of IRS-1
Cc1cc(OCCCC(C)(C)C(=O)O)c(C)cc1F [BJMU-3, 5-(4-fluoro-2,5-dimethylphenoxy)-2,2-dimethylpentanoic acid] | could inhibit NO generation |  |  |  |  |  |  |  |  |  |  |  |  |  |  |  | significantly increased the phosphorylation level of IRS-1
Cc1ccc(C)c(OCCCC(C)(C)C(=O)O)c1 [gemfibrozil, Gemfibrozil, reference compound] | did not have an activity of inhibiting NO generation |  | could not inhibit the activity of NF-κB reporter gene |  | did not show the activity of lowering total cholesterol in blood | did not show obvious hypoglycemic activity | 1.64 ± 0.28 mmol/L | 0.35 ± 0.02 mmol/L | 172.25 ± 123^ U/L | 225 ± 132.19 U/L | 9.56 ± 1.57 mmol/L | 3.37 ± 0.36 mmol/L | 1037 ± 523.17 U/L | 16 ± 10.46 µmol/L | 2.09 ± 0.95 mmol/L | neither gemfibrozil nor pioglitazone showed the above activity | 
